Measured values: PubChem BioAssay (NCI)
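Dose response: 5 concentrations. Exposure: 48 h. Format: 96-well plates. Endpoint: linear interpolation; highest concentration if not reached. TGI: concentration producing complete growth inhibition.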

Columns and labels:
Test in all cases: DTP human tumour cell line panel, 48 h
[1] = system: COLO 205 colon
[2] = system: OVCAR-3 ovarian
[3] = system: SNB-75 CNS
[4] = system: NCI-H23 lung
[5] = system: SW-620 colon
[6] = system: BT-549 breast
[7] = system: DU-145 prostate
[8] = system: A549 NSCLC
[9] = system: MOLT-4 leukemia
[10] = system: RXF 393 renal
[11] = system: UACC-62 melanoma

Row | SMILES | TGI [1] [µM] | TGI [2] [µM] | TGI [3] [µM] | TGI [4] [µM] | TGI [5] [µM] | TGI [6] [µM] | TGI [7] [µM] | TGI [8] [µM] | TGI [9] [µM] | TGI [10] [µM] | TGI [11] [µM]
1 | O=C(N/N=C\c1ccc(Cl)cc1)Nc1cccc2ccccc12 | > 100 | 3.24 | 5.62 | 98.9 | > 76.6 | > 100 | > 100 | 27 | > 43.7 | 9.99 | > 100
2 | C[N+]1(C)C/C(=C\C=C\c2ccccc2)C(=O)/C(=C/C=C/c2ccccc2)C1 | 11.8 | 42.6 | 40.3 | 34.4 | 41.5 | 8.39 | 37.2 | > 100 | 16.6 | > 61.1 | 14.2
3 | CC(=O)O[C@H]1C(=O)[C@@]2(C)[C@H]([C@H](OC(=O)c3ccccc3)[C@]3(O)C[C@H](OC(=O)[C@H](O)[C@@H](NC(=O)OC(C)(C)C)c4ccco4)C(C)=C1C3(C)C)[C@]1(OC(C)=O)CO[C@@H]1C[C@@H]2O | < 0.005 | 0.0471 | < 0.005 | > 40.9 | > 50 | < 0.005 | < 0.005 | > 50 | 25.9 | 0.0338 | > 33.4
4 | O=C(/C=C/c1ccc(O)c(O)c1)c1ccc(O)cc1O | 31 | 37.4 | 25.2 | 39.9 | 35.2 | 14.6 | 18.9 | 72.3 | 55.9 | 25.8 | 48.3
5 | O=[N+]([O-])c1ccc(C2NC(=S)NC3c4cc([N+](=O)[O-])ccc4CCCC23)cc1 (centres undefined) | > 100 | > 100 | 44.2 | > 100 | > 100 | > 100 | > 100 | > 100 | > 100 | 45.2 | > 100
6 | CC1=C(N2CC2)C(=O)C(C)=C(N2CC2)C1=O | 0.822 | 0.658 | 1.57 | 0.19 | 3.41 | 5.14 | 4.69 | 75.7 | 13.5 | 0.329 | 0.466
7 | CCOC(=O)Cc1ccc(Nc2nc3cc(F)c(F)cc3nc2C(=O)OCC)cc1 | > 100 | > 100 | > 100 | 66.5 | > 100 | > 100 | > 100 | > 100 | > 100 | > 100 | > 100
8 | Oc1ccccc1CNCc1ccccc1O | > 100 | > 100 | > 100 | > 100 | > 100 | > 100 | > 100 | > 100 | > 100 | > 100 | > 100
9 | O=c1[nH]c(Br)nc2n[nH]nc12 | > 100 | > 100 | > 100 | > 100 | > 100 | > 100 | > 100 | > 100 | 44.3 | > 100 | > 100
10 | Nc1n[nH]c(N)n1 | 9990 | > 10000 | > 10000 | > 9700 | > 10000 | > 10000 | > 10000 | > 10000 | > 10000 | > 10000 | 7470
11 | CC(C)(C)c1cc(OCc2n[nH]c(=S)n2N)c(Cl)cc1OCc1n[nH]c(=S)n1N | > 100 | > 100 | > 100 | > 100 | > 100 | > 100 | > 100 | > 100 | > 100 | > 100 | 50.3
12 | c1cc2cc(Cc3ccc4[nH]ccc4c3)ccc2[nH]1 | 33.9 | 32.9 | 38.6 | 39.8 | 93.3 | 45.8 | 56.2 | 34.8 | 41 | 37.7 | 38.9
13 | O=C(NCCCN1CCN(CCCNC(=O)c2cc(-c3ccccc3)nc3ccccc23)CC1)c1cc(-c2ccccc2)nc2ccccc12 | > 71.3 | > 53.6 | > 52.6 | > 100 | > 29.5 | 51.1 | > 67.1 | 48.7 | > 66.1 | > 60 | 37.5
14 | COc1cccc(C2c3cc4c(cc3OC(NNC(N)=O)C2C)OCO4)c1OC (centres undefined) | 27.8 | 50.2 | 59.3 | 77.8 | > 100 | > 100 | 83.1 | 56 | 66.8 | 49.9 | 53
15 | CC(C)(Cl)C(Cl)CC/C(CBr)=C(\Cl)CBr (centres undefined) | 8.1 | 6.81 | 4.85 | 3.77 | 3.28 | 3.27 | 20.1 | 30.3 | 2.32 | 3.78 | 3.33
16 | CC1=C(C(=O)NNC(=O)c2ccccc2O)CC(C(=O)NNC(=O)c2ccccc2O)=C(C)N1 | > 86.8 | > 23.4 | > 100 | > 100 | > 100 | > 100 | > 93.5 | > 100 | > 100 | > 100 | > 100
17 | CCn1c(=O)c2c3ccc(O)cc3[nH]c2c2ccc(O)cc21 | > 100 | > 100 | > 100 | > 100 | > 100 | > 100 | > 100 | > 100 | > 100 | > 100 | > 100
18 | O=C(OCC1CC(C2(O)CCCCC2)C(=O)O1)c1ccccc1 (centres undefined) | > 100 | > 100 | > 100 | > 100 | > 100 | > 100 | > 100 | > 100 | > 100 | > 100 | > 100
19 | CCOC(=O)C12CCC(c3c(C)cccc3C)(O1)C(C(=O)OC)=C2C(=O)OC (centres undefined) | 5.08 | 4.2 | 9.85 | > 8.69 | > 10 | > 10 | > 10 | > 10 | > 10 | > 10 | > 10
